The values that follow come from PubChem BioAssay AID588394 (NMMLSC, 2011).

Structures are written as SMILES. Calls of active or inactive are those of the source.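 The calls were made as follows: active = half-maximal effective concentration at most 10 microM and response span at least 30% from a well-fitted curve; inactive = the rest.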

One assay concerns the target Rab7 GTPase wild-type (Canis lupus familiaris), GST fusion. Kind of assay: blockers of fluorescent GTP uptake by Rab7 – biochemical, dog Rab7, bead multiplex flow cytometry, round 1, SAR follow-up (AID 588394). Particulars: Bead-based flow cytometry, Bodipy-FL-GTP binding, EDTA. Background: In flow cytometry, cells or beads pass a laser one at a time.
With `CC1(C)Cc2c(sc(NC(=S)NC(=O)c3ccccc3Br)c2C(=O)O)CO1`, the half-maximal effective concentration (EC50) (in general, the concentration that produces a half-maximal response) was 46 nM.
Still for that read-out and setting: with `CC1(C)Cc2c(sc(NC(=S)NC(=O)c3ccccc3F)c2C(=O)O)CO1` the figure was 56 nM; with `CC1(C)CCc2sc(NC(=S)NC(=O)c3ccccc3)c(C(=O)O)c2C1`, 72 nM; with `CC1(C)Cc2c(sc(NC(=S)NC(=O)c3cccc(F)c3)c2C(=O)O)CO1`, 308 nM.
`COc1ccc(C(=O)NC(=S)Nc2sc3c(c2C(=O)O)CC(C)(C)OC3)cc1`: the concentration for a half-maximal effect (EC50) was 126 nM.
Take `CC1(C)Cc2c(sc(NC(=S)NC(=O)c3cccc(Br)c3)c2C(=O)O)CO1`: the concentration giving a half-maximal response (EC50) is 2280 nM.
Regarding `COc1cccc(C(=O)NC(=S)Nc2sc3c(c2C(=O)O)CC(C)(C)OC3)c1`, the EC50 is 55 nM.
As to `CC1(C)Cc2c(sc(NC(=S)NC(=O)c3ccc(Br)cc3)c2C(=O)O)CO1`, the EC50 was 269 nM.

Still in this assay, the particulars now being: Bead-based flow cytometry, Bodipy-FL-GTP binding, EDTA; at 100 µM (top of the series).
Take `Cc1ccc(NC(=O)Nc2sc3c(c2C(=O)O)CCN(C)C3)cc1`: the “percent response, lower = inhibition” value was “inactive”.
As for `CCOC(=O)c1c(NC(=O)NC(C)(C)C)sc2c1CCN(C)C2`, the “percent response, lower = inhibition” value is “inactive”.
For the compound `CCOC(=O)c1c(NC(=S)NC(=O)c2ccccc2)sc2ccccc12`, the “percent response, lower = inhibition” value is “inactive”.
Regarding `CN1CCc2c(sc(NC(=O)Nc3ccc(F)cc3)c2C(=O)O)C1`, the “percent response, lower = inhibition” value was “inactive”.
Turning to `COC(=O)c1c(N)sc2c1CC(C)(C)OC2`, the “percent response, lower = inhibition” value was “inactive”.
Same read-out and setting: with `CC1(C)Cc2c(sc(NC(=S)Nc3ccccc3)c2C(=O)O)CO1` the entry was “inactive”.
For the compound `CC1(C)Cc2c(sc(NC(=O)Cc3ccccc3)c2C(=O)O)CO1`, the “percent response, lower = inhibition” value is “inactive”.
Take `CCOC(=O)c1c(NC(=O)Nc2ccc(C)cc2)sc2c1CCN(C)C2`: the “percent response, lower = inhibition” value was “inactive”.
With `Cc1ccc(Nc2nc3sc4c(c3c(=O)o2)CCN(C)C4)cc1`, the “percent response, lower = inhibition” value was “inactive”.
As to `CN1CCc2c(sc3nc(Nc4ccc(F)cc4)oc(=O)c23)C1`, the “percent response, lower = inhibition” value is “inactive”.
Regarding `CC(C)(C)OC(=O)c1c(NC(=S)NC(=O)c2ccccc2)sc2c1CCOC2`, the “percent response, lower = inhibition” value was “inactive”.
In the case of `CCOC(=O)c1c(NC(=S)Nc2ccccc2)sc2c1CC(C)(C)OC2`, the “percent response, lower = inhibition” value is “inactive”.
Still for that read-out and setting: with `CCOC(=O)c1c(N)sc2ccccc12` the entry was “inactive”.
Turning to `CCOC(=O)c1c(NC(=O)Nc2ccc(F)cc2)sc2c1CCN(C)C2`, the “percent response, lower = inhibition” value is “inactive”.
